According to patent publication US6649797B2, “Compounds and methods of use to treat infectious diseases” (The Picower Institute for Medical Research, priority 1996, dated 2003):
Values joined by “and” are separate entries in the source; they are usually repeats but may differ in a detail not shown here. Equal values may be shown once. Read-outs that look alike come from different tables or passages of the source.

Tests used:
[1] = Pharmacokinetics in mice (plasma, HPLC); format: in vivo, mouse; conditions: for AUC / Cmax / bioavailability / Tmax / A (zero time intercept of the distribution phase) / B (zero time intercept of the elimination phase) / Cltot / VD / t1/2α / t1/2β / α / β: mouse
Protocol: Standard addition curves for each test compound were constructed by adding increased amounts of drug to mouse or human A^+ plasma (Long Island Blood Services; Melville, N.Y). […] The column was washed with 1.0 ml of water and then eluted with 1.0 ml of 10 mM tetramethylammonium chloride/10 mM heptane sulfonate/4.2 mM H3PO4/95% CH3CN/5% H2O (Buffer C). The eluted sample was reduced to dryness in a rotary evaporator and resuspended in 1.0 ml Buffer A.
Two hundred μl of the resuspended sample was injected onto a Hewlett-Packard model 1090 high performance liquid chromatography system (HPLC)(Wilmington, Del.) equipped with a photodiode array ultraviolet/visible spectrophotometric detector, autosampler, and Chemstation operating software. The column used was a 250×4.6 mm Zorbax RX-C8 column (Mac-Mod Analyticals; Chadd's Ford, Pa.) kept at room temperature and run at 1.5 ml/min. The mobile phase used was Buffer A and 10 mM tetramethylammonium chloride/10 mM heptane sulfonate/4.2 mM H3PO4/75% CH3CN/25% H2O (Buffer B), with all runs initiated at 10% Buffer B. A linear 30 min gradient to 60% Buffer B was then performed, followed by a 4 min reverse gradient to initial conditions.
Female ND4 Swiss Webster mice (21-24 g) were obtained from Harlan Sprague Dawley (Indianapolis, Ind.) and randomly placed in groups of five in cages with free access to food and water. […] The other CNI compounds were administered intraperitoneally or by oral gavage as a solution in water titrated with sufficient HCl to dissolve the drug. At various time points, ranging from 5 min to 4 days, a single group of animals was euthanized by carbon dioxide inhalation and bled by cardiac puncture using heparin as an anticoagulant. The blood from the five mice in the group was pooled and centrifuged at 14000× g for 10 min. The volume of plasma was measured, and equal volume of Buffer A added, and the mixture extracted and analyzed as described above, except that the dried eluates were resuspended in 200 μl Buffer A and 100 μl was injected onto the high performance liquid chromatography (HPLC) system.
The area under the plasma concentration-time curve (AUC) was determined, and bioavailability was measured as AUCoral/AUCi.p. A and B represent the zero time intercept of the distribution and elimination phases respectively, and a and β the respective slopes of the phases multiplied by 2.303. The t/2α and t1/2β are calculated half-lives of the drug in each phase (0.693/α and 0.693/β respectively). The volume of distribution (VD) was calculated as dose/B, and the total clearance rate (Cltot) calculated as β*VD. Cmax and tmax are the maximal plasma concentration and time of this measurement, respectively.

[2] = In vitro metabolism with mouse liver post-mitochondrial supernatant and NADPH; format: in vitro ADME
Protocol: Several female ND4 Swiss Webster mice were euthanized by carbon dioxide inhalation and the livers excised and rinsed with ice cold phosphate buffered saline (pH 7.4). The livers were minced, gently homogenized in 50 mM phosphate buffer (pH 7.4) with a Dounce homogenizer, and centrifuged at 9600× g for 20 min. The post-mitochondrial supernatant was kept, glycerol added to 20%, and frozen at −70° C in 1.0 ml aliquots until used. For each incubation, 1.0 ml of a 1.0 mg/ml drug solution was added to 3.0 ml of 50 mM phosphate buffer (pH 7.4), 1.0 ml of 2 mg/ml NADPH in 50 mM phosphate (pH 7.4), and 1.0 ml of the post-mitochondrial supernatant. Five hundred μl of each incubate was then immediately transferred to an ice-cold tube to provide the zero-time sample, and addition 500 μl aliquots removed to ice-cold tubes at 8, 15, 30, and 60 min. The samples were then extracted, and analyzed by HPLC as described in section 7.1. Control incubations were also performed where drug or post-10 mitochondrial supernatant was omitted. […] Peaks in the CNI compound incubations which increased over time, and were not present in control samples lacking the enzyme preparation were treated as putative metabolites.

Plasmodium berghei NYU-2 = assay: Four day suppression test in Plasmodium berghei infected mice; format: in vivo; conditions: 50 mg/kg i.p. once daily for four days, P≦0.01
Protocol: FIG. 9. The activity of CNI-0294 against Plasmodium berghei infected mice. Female ND4 Swiss Webster mice were infected with infected erythrocytes and then treated once daily, for four days, with 50 mg/kg CNI-0294, or with distilled water. Six hours after the last dose, thin blood smears were made from each of the animals and the parasitemia was determined. The bars represent the median parasitemia (n=4 for controls and n=5 for treated).
The antimalarial activity of CNI-0294 in vivo was assessed by infecting female ND4 Swiss Webster mice with 100 μl of Plasmodium berghei NYU-2 infected mouse erythrocytes (50% parasitemia) by intraperitoneal injection. The animals were subsequently injected intraperitoneally once per day on days 1-4 of the infection with 0.5 ml water or 0.5 ml of 50 mg/kg CNI-0294 in water. Four hours after the final injection, small blood samples were taken from the tail, and thin smears stained with Dif-Quick (Baxter, Miami, Fla.). The parasitemia of control and treated animals was enumerated by inspection of at least 1000 erythrocytes in each animal.

HIV-1ADA [3] = assay: Anti-HIV activity in primary human monocytes, day 9 (Table IX, FIG. 12C); format: cell-based; conditions: Human immunodeficiency virus 1, Monocyte, 216 h
HIV-1 RT = HIV-1 RT (Human immunodeficiency virus type 1 group M subtype B, UniProt P04585); assay: Enzymatic activity of HIV-1 RT in vitro; format: biochemical
[4] = target: T1, HIV-1 pre-integration complex (MA / HIV-1 cDNA) (Human immunodeficiency virus type 1 group M subtype B, UniProt P05890+P05959); assay: Association of MA with HIV-1 cDNA (anti-MA immunoprecipitation of viral DNA); format: biochemical; conditions: 10 μM (FIG. 13A)
T1 construct: MA is made from the Gag precursor and RT is made from the Gag-Pol precursor; endogenous in cells; host or cells: cytoplasmic extract of H9 cells infected with HIV-1RF
Protocol: Cytoplasmic extracts prepared from H9 cells infected with HIV-1RF were treated with 10 μM CNI-H0294 (lanes 2, 3, and 4) or left untreated (lane 1). Samples were divided into two aliquots. One aliquot was mixed with GST-karyopherin α immobilized on Sepharose beads and the HIV-1 DNA that bound was quantified by PCR. The second aliquot was immunoprecipitated (IP) with anti-MA serum (αMA, lane 3) or with pre-immune serum (NSS, lane 4) as control.
To test this hypothesis, cytoplasmic lysates of HIV-1-infected H9 cells were treated with CNI-H0294 and mixed with immobilized karyopherin α or subjected to immunoprecipitation with antibodies that bind MA.

HIV-1ADA [5] = assay: HIV-1ADA production in mitogen-stimulated peripheral blood leukocytes (FIG. 3); format: cell-based
Protocol: FIG. 3. The effect of various concentrations of Compound No. 2 on RT activity in the supernatant of HIV-1-infected mitogen-stimulated peripheral blood leukocytes at infected at 10 and 1.0 ng p24/[…], FIGS. 3A and 3B, respectively.
PBMCs were purified by Ficoll-Hypaque centrifugation and activated by 10 μg/ml PHA-P (Sigma) and 20 U/ml recombinant human IL-2 (rhIL-2) in RPMI 1640 supplemented with 10% FBS (HyClone). After 24 h incubation, cells were washed and inoculated with HIV-1ADA in RPMI 1640 supplemented with 10% FBS. After a 2 h adsorption, free virus was washed away and cells were cultured in RPMI 1640 supplemented with 10% FBS and 20 U/ml rhIL-2.
For the reverse transcriptase (RT) assay, 10 μl of culture supernatant was added to 40 μl of reaction mixture (final composition was 50 mM Tris-HCl, pH 7.8; 20 MM KCl; 5 MM MgCl2; 1 mM DTT; 0.1% Triton X-100; 0.2 OD/ml polyA; 0.2 OD/ml oligo(dT)12-18; and 40 μCi/ml ^3H-dTTP (76 Ci/mmol, DuPont) and incubated 2 hr at 37° C. 5 μl of the reaction mixture was then spotted onto the DE 81 (Whatman) paper. Paper was air dried and washed 5 times with 5% Na2HPO4, followed by rinsing with distilled water. After air drying, paper was put on a Flexi Filter plate (Packard), covered with scintillation fluid and counted in a Top Count Microplate Counter (Packard). Results are expressed as counts per minute in 1 ml of supernatant (cpm/ml).

[6] = female, ND4 Swiss Webster, plasma, ip, 50 mg/kg, vehicle DMSO/peanut oil
[7] = female, ND4 Swiss Webster, plasma, ip, 50 mg/kg, vehicle water
[8] = female, ND4 Swiss Webster, plasma, po, 50 mg/kg, vehicle DMSO/peanut oil
[9] = i.p., 50 mg/kg, vehicle DMSO/peanut oil

Question: Which results are given for `CC(=O)c1cc(Nc2cc(C)[n+](C)c(N)n2)cc(C(C)=O)c1` [CNI-0294, 2-Amino-4-(3,5-diacetylphenyl)amino-1,6-dimethylpyrimidinium chloride]?
Answer: AUC [1, 6]: 9150 ng·h/mL; Cmax [1, 6]: 18800 ng/mL; AUC [1, 7]: 8830 ng·h/mL; Cmax [1, 7]: 18900 ng/mL; bioavailability ([1]; female, ND4 Swiss Webster, plasma, oral, mice, single 50 mg/kg dose, AUCoral against AUCi.p., read-out: relative bioavailability): 6%; AUC [1, 8]: 560 ng·h/mL; Cmax [1, 8]: 410 ng/mL; Tmax ([1]; female, ND4 Swiss Webster, plasma, ip, i.p., 50 mg/kg, vehicle DMSO/peanut oil, read-out: tmax (converted)): 5 min; bioavailability ([1]; female, ND4 Swiss Webster, plasma, oral, 50 mg/kg, vehicle DMSO/peanut oil, AUCoral/AUCi.p., read-out: Bioavailability): 6%; Tmax ([1]; female, ND4 Swiss Webster, plasma, oral, 50 mg/kg, vehicle DMSO/peanut oil, read-out: tmax (converted)): 60 min; maximal plasma level ([1]; mice, oral, single 50 mg/kg dose): 0.4 µg/mL; maximal plasma level ([1]; mice, single i.p. injection (50 mg/kg; CNI-1594 20 mg/kg)): 18.76 µg/mL and 18.76 to 18.93 µg/mL; A (zero time intercept of the distribution phase) [1, 9]: 14.00 µg/mL; B (zero time intercept of the elimination phase) [1, 9]: 0.07 µg/mL; Cltot [1, 9]: 35.35 mL/min; VD [1, 9]: 14.14 L; t1/2α [1, 9]: 37.2 min; t1/2β [1, 9]: 277 min; α [1, 9]: 1.12 h⁻¹; β [1, 9]: 0.15 h⁻¹; A (zero time intercept of the distribution phase) ([1]; i.p., 50 mg/kg, vehicle water): 16.07 µg/mL; B (zero time intercept of the elimination phase) ([1]; i.p., 50 mg/kg, vehicle water): 0.05 µg/mL; Cltot ([1]; i.p., 50 mg/kg, vehicle water): 62.70 mL/min; Tmax ([1]; i.p., 50 mg/kg, vehicle water): 5 min; VD ([1]; i.p., 50 mg/kg, vehicle water): 19.80 L; t1/2α ([1]; i.p., 50 mg/kg, vehicle water): 24 min; t1/2β ([1]; i.p., 50 mg/kg, vehicle water): 219 min; α ([1]; i.p., 50 mg/kg, vehicle water): 1.74 h⁻¹; β ([1]; i.p., 50 mg/kg, vehicle water): 0.19 h⁻¹; metabolites produced [2]: three minor and one major metabolite; metabolic conversion (drug altered, as judged by peak area) ([2]; 60 min incubation): 43.5%; lowering of parasitemia (Plasmodium berghei NYU-2): 10 fold; IC50 (HIV-1ADA [3]): 50 nM; block of enzymatic activity of HIV-1 RT in vitro (HIV-1 RT; concentrations up to 50 μM): nor did it block in concentrations up to 50 μM the enzymatic activity of HIV-1 RT in vitro; immunoprecipitation of viral DNA with anti-MA serum [4]: did not prevent immunoprecipitation of viral DNA with anti-MA serum

Question: For `CC(=O)c1cc(Nc2cc(C)[n+](C)c(N)n2)cc(C(C)=O)c1.[I-]` [Compound No. 2, 2-amino-4-(3,5-diacetylphenyl)amino-1,6-dimethylpyrimidinium iodide], which “reduction in viral output” value (HIV-1ADA [5]; 1 and 10 μM, lower MOI, 1 ng p24/10^6 cells) is on record?
Answer: ~2 fold

Question: And the “anti-viral effect in cultures of replicating cells” value (HIV-1ADA [5]; infected at the multiplicity of infection used to infect monocytes)?
Answer: No anti-viral effect was detected

Question: And the “effect on viral production” value (HIV-1ADA [5]; up to 10 μM, higher MOI, 10 ng p24/10^6 cells)?
Answer: only a marginal effect

Question: What about the Dose ([1]; calculated from clearance for target serum conc. (No. 2: 10 nM; No. 11: 50 nM; No. 15: 15 nM)) of the same molecule?
Answer: 6.80 mg/Kg day

Question: And the “inhibition of reverse transcriptase” value (HIV-1 RT; data not shown)?
Answer: does not inhibit reverse transcriptase
